Key:
Type in all cases: in vivo
Helicoverpa armigera = Helicoverpa armigera diet incorporation method; conditions: third instar larvae, dead and moribund combined, 96 h after release
In short: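 Third-instar larvae, starved, were placed singly on diet pieces containing test dispersion (bead-milled in surfactant, particles under 2 μm, 500 ppm stock then diluted). Trays kept at 25° C. and 70% RH; mortality counted at 96 h, moribund larvae counted with dead.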

Spodoptera litura = Spodoptera litura diet incorporation method; conditions: third instar larvae, dead and moribund combined, 96 h after release
In short: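 Compound milled to <2 μm average particle size in surfactant, dispersed in water (500 ppm stock dispersion), then mixed into semi-synthetic diet at ~50° C. One starved third-instar larva per diet cell, 25° C, 70% RH; percent mortality (dead plus moribund) scored at 96 h.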

Plutella xylostella = assay: whole plant or invertebrate; conditions: foliar, cabbage leaf dip, second instar larvae, dead and moribund combined, 72 h after release
In short: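 Leaf-dip bioassay: second-instar larvae, singly, fed on cabbage leaves dipped 10 s in test dispersion (bead-milled, diluted with 0.01% Triton-X to test concentration) and dried 20 min. Held at 25 °C, 70% RH; % mortality counts dead and moribund at 72 h.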

Measured: mortality at 300 ppm

CNC(=O)c1c(NC(=O)c2cc(Br)nn2-c2ncccc2Cl)c(Br)cc2ccnn12 [Compound 51, 5-bromo-6-(3-bromo-1-(3-chloropyridin-2-yl)-1H-pyrazole-5-carboxamido)-N-methylpyrazolo[1,5-a]pyridine-7-carboxamide]
> 70%: all assays above

O=C(Nc1c(Br)cc2ccnn2c1C(=O)NC1CC1)c1cc(Br)nn1-c1ncccc1Cl [Compound 52, 5-bromo-6-(3-bromo-1-(3-chloropyridin-2-yl)-1H-pyrazole-5-carboxamido)-N-cyclopropylpyrazolo[1,5-a]pyridine-7-carboxamide]
> 70%: all assays above

CC(C)(C)NC(=O)c1c(NC(=O)c2cc(Br)nn2-c2ncccc2Cl)c(Br)cc2ccnn12 [Compound 53, 5-bromo-6-(3-bromo-1-(3-chloropyridin-2-yl)-1H-pyrazole-5-carboxamido)-N-(tert-butyl)pyrazolo[1,5-a]pyridine-7-carboxamide]
> 70%: all assays above

O=C(Nc1c(Br)cc2ccnn2c1C(=O)NCC1CC1)c1cc(Br)nn1-c1ncccc1Cl [Compound 54, 5-bromo-6-(3-bromo-1-(3-chloropyridin-2-yl)-1H-pyrazole-5-carboxamido)-N-(cyclopropylmethyl)pyrazolo[1,5-a]pyridine-7-carboxamide]
> 70%: all assays above

CSCCNC(=O)c1c(NC(=O)c2cc(Br)nn2-c2ncccc2Cl)c(Br)cc2ccnn12 [Compound 55, 5-bromo-6-(3-bromo-1-(3-chloropyridin-2-yl)-1H-pyrazole-5-carboxamido)-N-(2-(methylthio)ethyl)pyrazolo[1,5-a]pyridine-7-carboxamide]
> 70%: all assays above

C=CCNC(=O)c1c(NC(=O)c2cc(Br)nn2-c2ncccc2Cl)c(Br)cc2ccnn12 [Compound 56, N-allyl-5-bromo-6-(3-bromo-1-(3-chloropyridin-2-yl)-1H-pyrazole-5-carboxamido)pyrazolo[1,5-a]pyridine-7-carboxamide]
> 70%: all assays above

C#CCNC(=O)c1c(NC(=O)c2cc(Br)nn2-c2ncccc2Cl)c(Br)cc2ccnn12 [Compound 57, 5-bromo-6-(3-bromo-1-(3-chloropyridin-2-yl)-1H-pyrazole-5-carboxamido)-N-(prop-2-yn-1-yl)pyrazolo[1,5-a]pyridine-7-carboxamide]
> 70%: all assays above

Cc1cc2ccnn2c(C(=O)NC(C)(C)C)c1NC(=O)c1cc(C(F)(F)F)nn1-c1ncccc1Cl [Compound 58, N-(tert-butyl)-6-(1-(3-chloropyridin-2-yl)-3-(trifluoromethyl)-1H-pyrazole-5-carboxamido)-5-methylpyrazolo[1,5-a]pyridine-7-carboxamide]
> 70%: all assays above

CCNC(=O)c1c(NC(=O)c2cc(C(F)(F)F)nn2-c2ncccc2Cl)c(C)cc2ccnn12 [Compound 59, 6-(1-(3-chloropyridin-2-yl)-3-(trifluoromethyl)-1H-pyrazole-5-carboxamido)-N-ethyl-5-methylpyrazolo[1,5-a]pyridine-7-carboxamide]
> 70%: all assays above

Cc1cc2ccnn2c(C(=O)NC(C)C)c1NC(=O)c1cc(C(F)(F)F)nn1-c1ncccc1Cl [Compound 60, 6-(1-(3-chloropyridin-2-yl)-3-(trifluoromethyl)-1H-pyrazole-5-carboxamido)-N-isopropyl-5-methylpyrazolo[1,5-a]pyridine-7-carboxamide]
> 70%: all assays above

Cc1cc2ccnn2c(C(=O)NC2CC2)c1NC(=O)c1cc(C(F)(F)F)nn1-c1ncccc1Cl [Compound 61, 6-(1-(3-chloropyridin-2-yl)-3-(trifluoromethyl)-1H-pyrazole-5-carboxamido)-N-cyclopropyl-5-methylpyrazolo[1,5-a]pyridine-7-carboxamide]
> 70%: all assays above

Cc1cc2ccnn2c(C(=O)NCC2CC2)c1NC(=O)c1cc(C(F)(F)F)nn1-c1ncccc1Cl [Compound 62, 6-(1-(3-chloropyridin-2-yl)-3-(trifluoromethyl)-1H-pyrazole-5-carboxamido)-N-(cyclopropylmethyl)-5-methylpyrazolo[1,5-a]pyridine-7-carboxamide]
> 70%: all assays above

CNC(=O)c1c(NC(=O)c2cc(C(F)(F)F)nn2-c2ncccc2Cl)c(C)cc2ccnn12 [Compound 63, 6-(1-(3-chloropyridin-2-yl)-3-(trifluoromethyl)-1H-pyrazole-5-carboxamido)-N,5-dimethylpyrazolo[1,5-a]pyridine-7-carboxamide]
> 70%: all assays above

Cc1cc2ccnn2c(C(=O)NCC2CC2)c1NC(=O)c1cc(N2CC(F)(F)C2)nn1-c1ncccc1Cl [Compound 67, 6-(1-(3-chloropyridin-2-yl)-3-(3,3-difluoroazetidin-1-yl)-1H-pyrazole-5-carboxamido)-N-(cyclopropylmethyl)-5-methylpyrazolo[1,5-a]pyridine-7-carboxamide]
> 70%: all assays above

CNC(=O)c1c(NC(=O)c2cc(N3CC(F)(F)C3)nn2-c2ncccc2Cl)c(C)cc2ccnn12 [Compound 68, 6-(1-(3-chloropyridin-2-yl)-3-(3,3-difluoroazetidin-1-yl)-1H-pyrazole-5-carboxamido)-N,5-dimethylpyrazolo[1,5-a]pyridine-7-carboxamide]
> 70%: all assays above

Cc1cc2ccnn2c(C(=O)NC(C)C)c1NC(=O)c1cc(Oc2cc(C(F)(F)F)nn2C)nn1-c1ncccc1Cl [Compound 71, 6-(1-(3-chloropyridin-2-yl)-3-((1-methyl-3-(trifluoromethyl)-1H-pyrazol-5-yl)oxy)-1H-pyrazole-5-carboxamido)-N-isopropyl-5-methylpyrazolo[1,5-a]pyridine-7-carboxamide]
> 70%: all assays above

Cc1cc2ccnn2c(C(=O)NCC2CC2)c1NC(=O)c1cc(OC2CSC2)nn1-c1ncccc1Cl [Compound 72, 6-(1-(3-chloropyridin-2-yl)-3-(thietan-3-yloxy)-1H-pyrazole-5-carboxamido)-N-(cyclopropylmethyl)-5-methylpyrazolo[1,5-a]pyridine-7-carboxamide]
> 70%: all assays above

CCNC(=O)c1c(NC(=O)c2cc(Br)nn2-c2ncccc2Cl)c(Br)cc2ccnn12 [Compound 76, 5-bromo-6-(3-bromo-1-(3-chloropyridin-2-yl)-1H-pyrazole-5-carboxamido)-N-ethylpyrazolo[1,5-a]pyridine-7-carboxamide]
> 70%: all assays above

CONC(=O)c1c(NC(=O)c2cc(Br)nn2-c2ncccc2Cl)c(Br)cc2ccnn12 [Compound 87, 5-bromo-6-(3-bromo-1-(3-chloropyridin-2-yl)-1H-pyrazole-5-carboxamido)-N-methoxypyrazolo[1,5-a]pyridine-7-carboxamide]
> 70%: all assays above

CC(C)NC(=O)c1c(NC(=O)c2cc(Br)nn2-c2ncccc2Cl)c(Br)cc2ccnn12 [Compound 91, 5-bromo-6-(3-bromo-1-(3-chloropyridin-2-yl)-1H-pyrazole-5-carboxamido)-N-isopropylpyrazolo[1,5-a]pyridine-7-carboxamide]
> 70%: all assays above

CONC(=O)c1c(NC(=O)c2cc(C(F)(F)F)nn2-c2ncccc2Cl)c(C)cc2ccnn12 [Compound 93, 6-(1-(3-chloropyridin-2-yl)-3-(trifluoromethyl)-1H-pyrazole-5-carboxamido)-N-methoxy-5-methylpyrazolo[1,5-a]pyridine-7-carboxamide]
> 70%: all assays above

Cc1cc2ccnn2c(C(=O)NC(C)C2CC2)c1NC(=O)c1cc(Br)nn1-c1ncccc1Cl (stereo not drawn) [Compound 95, 6-(3-bromo-1-(3-chloropyridin-2-yl)-1H-pyrazole-5-carboxamido)-N-(1-cyclopropylethyl)-5-methylpyrazolo[1,5-a]pyridine-7-carboxamide]
> 70%: all assays above

Cc1cc2ccnn2c(C(=O)NCC(F)(F)F)c1NC(=O)c1cc(Br)nn1-c1ncccc1Cl [Compound 96, 6-(3-bromo-1-(3-chloropyridin-2-yl)-1H-pyrazole-5-carboxamido)-5-methyl-N-(2,2,2-trifluoroethyl)pyrazolo[1,5-a]pyridine-7-carboxamide]
> 70%: all assays above
